The source of these data is ChEMBL document CHEMBL1148656, “Synthesis, SAR exploration, and X-ray crystal structures of factor XIa inhibitors containing an alpha-ketothiazole arginine” (Bioorg Med Chem Lett, 2006).

The target of this experiment is Coagulation factor XI (Homo sapiens, UniProt P03951).
Sequence of Coagulation factor XI (P03951 19-387 limits assumed): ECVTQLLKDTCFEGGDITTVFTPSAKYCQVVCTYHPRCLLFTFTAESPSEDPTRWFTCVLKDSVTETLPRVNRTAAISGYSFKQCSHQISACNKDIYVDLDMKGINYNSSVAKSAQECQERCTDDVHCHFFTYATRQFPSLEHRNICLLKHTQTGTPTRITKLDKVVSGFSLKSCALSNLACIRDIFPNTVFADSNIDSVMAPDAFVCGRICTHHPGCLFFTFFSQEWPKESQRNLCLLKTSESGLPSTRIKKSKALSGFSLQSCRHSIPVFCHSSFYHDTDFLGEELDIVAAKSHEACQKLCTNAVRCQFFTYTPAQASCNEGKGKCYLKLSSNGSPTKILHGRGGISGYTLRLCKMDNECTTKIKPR
Sequence of Coagulation factor XI (P03951 388-625 limits assumed): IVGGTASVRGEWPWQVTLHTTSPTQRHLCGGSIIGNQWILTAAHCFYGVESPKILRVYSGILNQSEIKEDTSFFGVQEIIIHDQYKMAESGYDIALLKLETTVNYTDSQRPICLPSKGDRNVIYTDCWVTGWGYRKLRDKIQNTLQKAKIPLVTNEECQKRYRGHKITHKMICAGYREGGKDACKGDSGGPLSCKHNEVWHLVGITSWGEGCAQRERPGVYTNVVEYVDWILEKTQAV

`CC(C)[C@H](NC(=O)N[C@@H]1C[C@@H]2C[C@H]([C@H]1C)C2(C)C)C(=O)N[C@@H](CCCN=C(N)N)C(=O)c1nccs1` gave an IC50 of 0.713 µM. Next, `NC(N)=NCCC[C@H](NC(=O)Cc1cccc2ccccc12)C(=O)c1nccs1`: more than 250 µM; `CC(C)[C@H](NC(=O)N[C@H]1C[C@H]2C[C@@H]([C@@H]1C)C2(C)C)C(=O)N[C@@H](CCCN=C(N)N)C(=O)c1nccs1`: 3.31 µM. Next, `CC(C)[C@H](NC(=O)[C@H](O)c1cccc(Cl)c1)C(=O)N[C@@H](CCCN=C(N)N)C(=O)c1nccs1`: 0.116 µM; `CC(C)[C@H](NC(=O)NCc1ccc(Cl)c(Cl)c1)C(=O)N[C@@H](CCCN=C(N)N)C(=O)c1nccs1`: 0.48 µM; `CC(C)[C@H](CC(=O)NCc1ccc(Cl)c(Cl)c1)C(=O)N[C@@H](CCCN=C(N)N)C(=O)c1nccs1`: 6.22 µM. With `N=C(N)NCCC[C@H](NS(=O)(=O)c1ccc2ccccc2c1)C(=O)c1nccs1`, the IC50 stood at 86 µM.

For the compound `NC(N)=NCCC[C@H](NC(=O)c1cccc2ccccc12)C(=O)c1nccs1`, the IC50 was 2.25 µM.

As for `NC(N)=NCCC[C@H](NC(=O)Cc1ccc(Cl)c(Cl)c1)C(=O)c1nccs1`, the IC50 was determined as 37.9 µM. Next, `N=C(N)NCCC[C@H](NS(=O)(=O)c1cccc2ccccc12)C(=O)c1nccs1`: 250 µM; `CC(C)CC(=O)N[C@@H](CCCN=C(N)N)C(=O)c1nccs1`: 123 µM; `CC(C)[C@H](NC(=O)[C@H](O)c1cccc(F)c1)C(=O)N[C@@H](CCCN=C(N)N)C(=O)c1nccs1`: 0.956 µM.

`N=C(N)NCCC[C@H](NC(=O)c1cc(F)cc2c1OCOC2)C(=O)c1nccs1` gave an IC50 of 5.9 µM. Then `N=C(N)NCCC[C@H](NC(=O)c1ccc2ccccc2c1)C(=O)c1nccs1`, with more than 200 µM.

Usually IC50 stands for the concentration that inhibits the measured activity by half. Low values mean greater potency in that assay, high ones weaker potency in that assay.
